# Measurements: PMC10743895, “Synthesis of 1,3,4-Thiadiazole Derivatives and Their Anticancer Evaluation” (International Journal of Molecular Sciences, 2023)
# Read-outs that look alike come from different tables or passages of the source.
# Experiments:
# [1] = system: MCF-7 cells; test: MTS cell viability assay, MCF-7 cells; format: cell-based, human; settings: Homo sapiens
# Protocol: (§1) To determine the optimal working concentration, dose-effect curves were made for each compound in the range of concentrations between 6.25 and 400 μM.
# (§2) LoVo (human colorectal adenocarcinoma) human cancer cell line and HUVEC normal cells were purchased from American Type Culture Collection (ATCC). The MCF-7 human breast adenocarcinoma cell line was provided from European Collection of Authenticated Cell Cultures (ECACC). HUVEC normal cells, isolated from the vascular endothelium of an umbilical cord, were used as a reference. Adherent cells were maintained in culture in Dulbecco’s modified Eagle medium/nutrient mixture F-12 (DMEM:F12) with 2 mM of L-glutamine, 10% fetal bovine serum, 100 units/mL of penicillin and 100 μg/mL of streptomycin, and incubated at 37 °C in a 5% CO2-humidified atmosphere. After 24 h, adherent cells were treated with different concentrations of the compounds for different periods of time. Cis-Pt and DOX, conventional oncology drugs used in cancer treatments, can be used as a positive control of the experiments. […] Then, cells were detached with a nonenzymatic solution of phosphate-buffered saline (PBS)/1 mM EDTA and washed twice in PBS.
# (§3) The study utilized a colorimetric assay based on MTS (chemically known as 3-(4,5-dimethylthiazol-2-yl)-5-(3-carboxymethoxyphenyl)-2-(4-sulfophenyl)-2H-tetrazolium) and called CellTiter 96 Aqueous One Solution Cell proliferation Assay (Promega, Madison, WI, USA) in order to measure cell viability. The assay was performed in triplicate in 96-well microtiter plates with a flat bottom (Falcon). A number of 1 × 10^4 cells/well were cultured in 100 μL for 24 h, culture supernatants were discarded, and then cells were treated for 24 and 48 h with increasing concentrations of the tested compound. After the end of the incubation time, 20 μL of the reagent containing MTS and PES (phenazine ethosulfate) was added in each well. Plates were incubated for 4 h at 37 °C, with mild agitation every 15 min. The reduction in the tetrazolium compound to formazan was spectrophotometrically measured at λ = 492 nm using a Dynex plate reader (DYNEX Technologies MRS, Chantilly, VA, USA). The percentage of viability compared to untreated cells (considered 100% viable) was calculated with the formula:(1) Cell viability (%)=Absorbance treated cells−Absorbance culture medium/Absorbance untreated cells−Absorbance culture medium×100
# (§4) The cell viability compared was calculated and data were expressed as a mean ± standard deviation (SD) of the experiments and obtained in triplicate (n = 3).
# [2] = system: HUVEC normal cells; test: MTS cell viability assay, HUVEC normal cells; format: cell-based, human; settings: Homo sapiens, HUVEC
# Protocol: as §1, §2, §3, §4
# [3] = system: Daphnia magna; test: Daphnia magna toxicity assay; format: in vivo; settings: for Maximum Average L% (lethality): up to 200 µM
# Protocol: (§5) The Daphnia magna bioassay results are presented in Table 3 as the maximum average percentage of lethality (L%) registered for each compound and the median lethal concentration (LC50) if the values permitted its calculation.
# (§6) Daphnia magna Straus is parthenogenetically maintained at ‘Carol Davila’ University’s Department of Pharmaceutical Botany and Cell Biology. The culture was consistently maintained at a temperature of 25 °C, with a 16-h light and 8-h dark photoperiod. To ensure consistency, young daphnids were carefully chosen based on their size and kept in an artificial medium for 24 h prior to the assessment. The bioassay involved 10 daphnids per replicate, using tissue culture plates with 12 wells from Greiner Bio-One. The experimental procedure followed the protocol described in previous studies.
# (§7) Each determination was carried out in duplicate.
# [4] = Daphnia magna toxicity assay; format: in vivo; settings: Daphnia magna, in vivo
# Protocol: as §5, §6, §7
# [5] = system: LoVo cells; test: MTS cell viability assay, LoVo cells; format: cell-based, human; settings: Homo sapiens, LoVo
# Protocol: as §1, §2, §3, §4
# [6] = system: LoVo cells; test: Apoptosis assay (Annexin V-FITC/PI flow cytometry), LoVo; format: cell-based, human
# Protocol: (§8) Two reference concentrations, 5 μM and 50 μM, and two distinct treatment durations, 24 and 48 h, were employed to assess the influence of the test compounds on apoptosis in both normal and tumor cells. […] HUVEC cells were exposed to both drugs.
# (§9) The apoptosis assay was performed according to the manufacturer’s instructions using the Annexin V-FITC kit (BD Biosciences, San Jose, CA, USA). Cells untreated and treated with the experimental compound were suspended in a cold binding buffer. The percentages of apoptotic cells were determined by double staining with Annexin V-FITC/PI. In each tube was added 400 μL of Annexin V binding buffer and the 5000 cells/sample for 15 min in the dark at room temperature. The cells were analyzed using a FACSCantoII flow-cytometer (Becton Dickinson—BD, La Jolla, CA, USA). The analysis was performed using DIVA 6.2 software to discriminate viable cells (FITC-PI-) from necrotic cells (FITC + PI+), and early apoptosis (FITC + PI) from late apoptosis.
# [7] = system: MCF-7 cells; test: Apoptosis assay (Annexin V-FITC/PI flow cytometry), MCF-7; format: cell-based, human
# Protocol: as §8, §9
# [8] = system: HUVEC cells; test: Apoptosis assay (Annexin V-FITC/PI flow cytometry), HUVEC; format: cell-based, human
# Protocol: as §8, §9
# [9] = MCF7, read-out: IC50 (48 h) MCF-7, 48 h exposure
# [10] = MCF7, 24 h exposure, read-out: IC50 (24 h) MCF-7
# [11] = read-out: IC50 (48 h) HUVEC, 48 h exposure
# [12] = 24 h exposure, read-out: IC50 (24 h) HUVEC
# [13] = read-out: IC50 (48 h) LoVo, 48 h exposure
# [14] = 24 h exposure, read-out: IC50 (24 h) LoVo
Compound,"IC50 [1, 9]","IC50 [1, 10]","IC50 [2, 11]","IC50 [2, 12]",Maximum Average L% (lethality) ([3]; 24 h),Maximum Average L% (lethality) ([3]; 48 h),LC50 at 48 h [4],"IC50 [5, 13]","IC50 [5, 14]",Total Apoptosis (%) 24 h LoVo ([6]; 5 μM),Total Apoptosis (%) 48 h LoVo ([6]; 5 μM),Total Apoptosis (%) 24 h LoVo ([6]; 50 μM),Total Apoptosis (%) 48 h LoVo ([6]; 50 μM),Total Apoptosis (%) 24 h MCF-7 ([7]; 5 μM),Total Apoptosis (%) 48 h MCF-7 ([7]; 5 μM),Total Apoptosis (%) 24 h MCF-7 ([7]; 50 μM),Total Apoptosis (%) 24 h HUVEC ([8]; 5 μM),Total Apoptosis (%) 48 h HUVEC ([8]; 5 μM),Total Apoptosis (%) 24 h HUVEC ([8]; 50 μM),Total Apoptosis (%) 48 h HUVEC ([8]; 50 μM),also measured
"Cc1ccc(-c2nnc(N)s2)cc1 [2b, 5-(4-Methylphenyl)-1,3,4-thiadiazol-2-amine]",> 400 µM,> 400 µM,70.9 µM,> 400 µM,10%,55%,144 µM,124 µM,134 µM,6.9%,14.0%,6.3%,12.3%,8.0%,16.7%,8.4%,16.7%,15.7%,13.6%,16.6%,Total Apoptosis (%) 48 h MCF-7 ([7]; 50 μM): 25.4%
"COc1ccc(OC)c(-c2nnc(N)s2)c1 [2d, 5-(2,5-Dimethoxyphenyl)-1,3,4-thiadiazol-2-amine]",122 µM,154 µM,94.8 µM,> 400 µM,40%,95%,50.7 µM,29.2 µM,53.6 µM,13.5%,19.3%,12.0%,17.9%,14.6%,37.6%,11.8%,28.4%,14.4%,19.8%,16.8%,LC50 at 24 h [4]: 241 µM; Total Apoptosis (%) 48 h MCF-7 ([7]; 50 μM): 34.9%
"Nc1nnc(-c2ccccc2CS(=O)(=O)c2ccccc2)s1 [2g, 5-[2-(Benzenesulfonylmethyl)phenyl]-1,3,4-thiadiazol-2-amine]",23.3 µM,43.3 µM,44.6 µM,> 400 µM,0%,20%,–,2.44 µM,18.1 µM,13.6%,23.6%,19.6%,24.8%,18.7%,42.2%,19.7%,19.0%,14.7%,19.3%,14.1%,lethality percentages in the Daphnia test ([3]; even at the highest concentration of 200 µM): below 20%; Total Apoptosis (%) 48 h MCF-7 ([7]; 50 μM): 44.5%
"CC(=O)Nc1nnc(-c2ccccc2)s1 [3a, N-(5-Phenyl-1,3,4-thiadiazol-2-yl)acetamide]",> 400 µM,> 400 µM,> 400 µM,> 400 µM,95%,100%,< 6.25 µM,> 400 µM,> 400 µM,14.9%,20.1%,14.5%,22.3%,17.6%,24.9%,17.9%,26.6%,18.2%,22.6%,20.1%,LC50 at 24 h [4]: < 6.25 µM
"O=C(Nc1nnc(-c2ccccc2)s1)c1ccccc1CSc1ccccc1 [3c, 2-Phenylthiomethyl-N-(5-phenyl-1,3,4-thiadiazol-2-yl)benzamide]",> 400 µM,> 400 µM,> 400 µM,> 400 µM,10%,55%,188 µM,> 400 µM,> 400 µM,14.8%,27.6%,11.2%,24.5%,16.4%,39.3%,14.3%,15.5%,13.5%,16.9%,14.7%,Total Apoptosis (%) 48 h MCF-7 ([7]; 50 μM): 37.3%
